# Assay results taken from patent US20240238248A1, “PHARMACEUTICAL COMPOSITION FOR USE IN TREATING CEREBRAL INFARCTION” (Ji Xing Pharmaceuticals Hong Kong Limited, priority 2021, published 2024).
# Where two headings read alike, the source gives them in different places.
# How the values were obtained:
# [1] = tested on: cerebral infarction patients; assay: Phase II single dose study for cerebral infarction patients: safety; format: in vivo
# Method: (§1) Randomized, double blind, placebo control, single dose, intravenous administration, parallel between groups and dose escalation regimen
# (§2) Cerebral infarction patients within 12 hours from onset are used as subjects. Test subjects (90 patients: first cohort: 9, second cohort: 27, third cohort: 54) are determined in accordance with the following selection criteria and exclusion criteria.
# To patients with acute cerebral infarction within 12 hours after onset, TMS-007 (SMTP-7 sodium salt preparation)) or a placebo were administered intravenously once (bolus over 1 minute+continuous injection over 30 minutes).
# The frequency of occurrence of symptomatic intracranial hemorrhage with NIHSS score worsening of 4 or more points up to 24 hours after administration of TMS-007
# [2] = Phase II single dose study: pharmacokinetics (plasma TMS-007 concentration); format: in vivo, human; conditions: for concentration at 31 min / concentration at 2 h: human, plasma, intravenous, patients, read-out: plasma TMS-007 concentration (mean±standard deviation); for concentration at 31 min: 31 minutes after administration; for concentration at 2 h: 2 hours after the administration
# Method: (§3) To patients with acute cerebral infarction within 12 hours after onset, TMS-007 (SMTP-7 sodium salt preparation)) or a placebo were administered intravenously once (bolus over 1 minute+continuous injection over 30 minutes). The ratio of number of patients to which an active drug (TMS-007 sodium salt preparation) is to be administered relative to the number of patients to which a placebo is to be administered is set at 2:1 in the first and second cohorts and 1:1 in the third cohort as shown in Table 1 below.
# (§4) • Safety (e.g., extracranial hemorrhage, major hemorrhage) up to Day 7 after administration • Symptomatic intracranial hemorrhage and non-symptomatic intracranial hemorrhage within 24 hours after administration • Value of mRS on Day 90 after administration • A rate of recanalization observed in an MRA image of 24 hours after administration • PK (concentration of unchanged form of TMS-007, Cmax, AUC) when TMS-007 was administered
# In the PK analysis set, the dose groups except the placebo group were subjected to counting/analysis. The plasma TMS-007 concentrations (original scale value, mean±standard deviation) of the TMS-007 (1, 3, 6 mg/kg) groups (hereinafter described in the same order) 31 minutes after administration of a study drug were 7.294±1.472, 29.28±8.425 and 52.19±12.76 μg/mL, respectively; the plasma TMS-007 concentrations 2 hours after the administration were 0.1379±0.09777, 0.8970±0.5752 and 3.033±2.924 μg/mL, respectively. With respect to the plasma concentration value (logarithmic conversion value) of a study drug 31 minutes after initiation of administration, difference between doses was evaluated by one-way ANOVA using a dose as a factor. As a result, p value was less than 0.0001 and difference was statistically significant
# When the dose proportionality of plasma TMS-007 concentration of the investigational new drug 31 minutes after initiation of administration, was evaluated, a point estimation value (two-sided 95% confidence interval) of slope (b) of a regression equation of power model was 1.042 (0.895-1.189). From this, linearity of TMS-007 in the dose range of 1 to 6 mg/kg was confirmed (see, FIG. 11).
# [3] = tested on: cerebral infarction patients; assay: Phase II single dose study: mRS on Day 90 after administration; format: in vivo, human; conditions: for Odds ratio, rate of obtaining outcome of mRS0-2: Day 90 after administration
# Method: as §1, §2, §3, §4
# In the FAS group, to mRS evaluation of individual dose groups (mRS 0-1 is assigned 1, mRS 2-6 is assigned 0) Day 90 after administration (Day 90), a logistic model using response, dose groups (TMS-007-combined group and placebo group), mRS on the base line, NIHSS score, age, blood pressure (systolic blood pressure) as explanatory variables was applied, odds ratio and 95% confidence interval of the TMS-007-combined group relative to the placebo group were estimated. The same estimation was carried out by using TMS-007 dose groups as the dose groups relative to the placebo group. More specifically, the odds ratios of individual TMS-007 dose groups relative to the placebo group and 95% confidence interval were estimated.
# [4] = tested on: healthy adult males; assay: Phase I test for healthy persons: safety and tolerance; format: in vivo, human
# Method: (§5) Phase I test (placebo-control randomized double-blind test) for healthy adult males was carried out. Five cohorts each was constituted of 8 persons (active drug was administered to 6 person and a placebo was administered to 2 person) were used in the test. TMS-007 (SMTP-7 sodium salt preparation) or a placebo was administered intravenously once at a dose of 0.05, 0.25, 1, 3, and 6 mg/kg (equivalent) over 31 minutes (bolus over 1 minute+continuous administration over 30 minutes). The subjects determined to be eligible by a screening test were hospitalized the day before administration. Day 3 from completion of administration, the subjects were allow to leave the hospital. Day 7 from completion of administration, post (follow-up) examination was carried out for safety, tolerance and PK in the period up to Day 7.
# [5] = tested on: mice, rats and monkeys; assay: Pharmacological tests using mice, rats and monkeys; format: in vivo; conditions: dose of 1 to 10 mg/kg
# Method: (§6) Cmax and AUC0-24 values when TMS-007 was administered to rats and monkeys were as follows.
# [6] = Plasma pharmacokinetics in rats (repeated-dose study); format: in vivo; conditions: rat, iv, male rats, 12 mg/kg-dose group, initial day of repeated-dose study, average
# Method: (§7) Rats (12 males and 12 females) under neither anesthesia nor unrestrained condition were repeatedly and intravenously given TMS-007 (preparation of a sodium-salt thereof) at a dose of 2.4, 12 and 60 mg/kg (continuously over 30 minutes) once daily for two weeks. The day after completion of repeated administration, the rats were subjected to autopsy. As a result, NOAEL of the toxicity test of rats by repeated administration was determined to be 60 mg/kg or more.
# as §6
# [7] = Toxicity test by two-week repeated administration to rats; conditions: both sexes, rat, in vivo, intravenous over 30 minutes once daily for two weeks, 2.4, 12 and 60 mg/kg
# Method: as §7
# [8] = Plasma pharmacokinetics in monkeys (extended single-dose and repeated-dose study); format: in vivo; conditions: monkey, iv, male monkeys, 10 mg/kg-dose group, extended single-dose study and repeated-dose study (first day), average
# Method: (§8) Cynomolgus monkey (3 males per group and 3 females per group) under neither anesthesia nor unrestrained condition were repeatedly and intravenously given TMS-007 (preparation of a sodium-salt thereof) at a dose of 3, 10 and 30 mg/kg (continuously over 30 minutes) once daily for two weeks. The day after completion of repeated administration, the monkeys were subjected to autopsy. As a result, NOAEL of the toxicity test of cynomolgus monkeys by repeated administration was determined to be 10 mg/kg or more in both male and female groups.
# as §6
# [9] = tested on: cerebral infarction patients observed to have occlusion; assay: Phase II single dose study: recanalization rate evaluated by MRA; format: in vivo, human; conditions: TMS-007 administration group vs placebo group
# Method: as §3, §4
# The recanalization rate was evaluated by MRA. Patients (39 cases) observed to have occlusion at the time of enrollment and observed to be “canalized” or “partially canalized” on Day 2 were evaluated as recanalization cases. The ratio of the recanalization cases was 14/[…] cases (58.3%) in the TMS-007 administration groups and 4/15 cases (26.7%) in the placebo group. […]
# [10] = Toxicity test by two-week repeated administration to cynomolgus monkeys; conditions: both sexes, cynomolgus monkey, in vivo, male and female, intravenous over 30 minutes once daily for two weeks, 3, 10 and 30 mg/kg
# Method: as §8
# [11] = Phase I test for healthy persons: pharmacokinetics; format: in vivo, human; conditions: for Cmax / AUC(0-t): iv; for AUC(0-t): read-out: AUC0-24 (converted)
# Method: as §5
# [12] = TMS-007 combined group to placebo group, Day 90, FAS
# [13] = male, human, blood, 0.05 mg/kg single i.v. over 31 minutes
# [14] = male, human, blood, 0.25 mg/kg single i.v. over 31 minutes
# [15] = male, human, blood, 1 mg/kg single i.v. over 31 minutes
# [16] = male, human, blood, 3 mg/kg single i.v. over 31 minutes
# [17] = male, human, blood, 6 mg/kg single i.v. over 31 minutes
smiles,measurement,setting,value
"CC(C)=CCC/C(C)=C/CC[C@]1(C)Oc2c(c(O)cc3c2CN(CCC[C@@H](C(=O)O)N2Cc4c(cc(O)c5c4O[C@@](C)(CC/C=C(\C)CCC=C(C)C)[C@@H](O)C5)C2=O)C3=O)C[C@@H]1O [TMS-007, (S)-2,5-bis((2S,3S)-2-((E)-4,8-dimethylnona-3,7-dien-1-yl)-3,5-dihydroxy-2-methyl-7-oxo-3,4,7,9-tetrahydropyrano[2,3-e]isoindol-8(2H)-yl)pentanoic acid]",occurrence of major hemorrhage,"[1]; human, in vivo",not observed
same,symptomatic intracranial hemorrhage,"[1]; human, in vivo",not observed
same,"frequencies of adverse event, serious adverse event, side effect, serious side effect, adverse event leading to discontinuation vs placebo (Fisher's exact test)","[1]; individual TMS-007 groups and combined group, up to Day 90",not statistically significant
same,symptomatic intracranial hemorrhage with NIHSS score worsening of 4 or more points,"[1]; up to 24 hours after administration, safety analysis set, TMS-007 groups (1, 3, 6 mg/kg)",not observed
same,concentration at 31 min,[2]; 1 mg/kg,7290 ± 1470 ng/mL
same,concentration at 2 h,[2]; 1 mg/kg,138 ± 97.8 ng/mL
same,concentration at 31 min,[2]; 3 mg/kg,29300 ± 8420 ng/mL
same,concentration at 2 h,[2]; 3 mg/kg,897 ± 575 ng/mL
same,concentration at 31 min,[2]; 6 mg/kg,52200 ± 12800 ng/mL
same,concentration at 2 h,[2]; 6 mg/kg,3030 ± 2920 ng/mL
same,"slope (b) of regression equation of power model, dose proportionality (two-sided 95% confidence interval)","[2]; plasma concentration 31 minutes after initiation of administration, 1 to 6 mg/kg",1.042 (0.895-1.189)
same,"Estimated value (logistic model, dose group) for mRS 0-1","[3]; 1 mg/kg to placebo group, Day 90, FAS",−2.425
same,"Odds ratio, rate of obtaining outcome of mRS0-2",[3]; 1 mg/kg,0.292
same,"Estimated value (logistic model, dose group) for mRS 0-1","[3]; 3 mg/kg to placebo group, Day 90, FAS",−0.726
same,"Odds ratio, rate of obtaining outcome of mRS0-2",[3]; 3 mg/kg,0.585
same,"Estimated value (logistic model, dose group) for mRS 0-1","[3]; 6 mg/kg to placebo group, Day 90, FAS",−1.207
same,"Odds ratio, rate of obtaining outcome of mRS0-2",[3]; 6 mg/kg,0.506
same,"Estimated value (logistic model, dose group) for mRS 0-1",[3]; [12],−1.206
same,"Odds ratio of mRS (mRS 0 and 1 assigned 1, mRS 2-6 assigned 0)",[3]; [12],0.299
same,"Odds ratio, rate of obtaining outcome of mRS0-2",[3]; TMS-007 combined group,0.500
same,Adverse events observed,[4]; single i.v. 0.05-6 mg/kg,all non-serious/mild/restorability
same,indication of hemorrhagic risk,[4]; single i.v. dose-escalation trial,not observed
same,medicinal effects,[5],reduction of the area of infarction and improvement of neurological symptoms
same,Cmax,[6],20200 ng/mL
same,AUC(0-t),[6]; read-out: AUC0-24 (converted),25700 ng·h/mL
same,NOAEL at 2 weeks,[7],≥ 60 mg/kg
same,Cmax,[8],45800 to 58600 ng/mL
same,AUC(0-t),[8]; read-out: AUC0-24,32200 to 40200 ng·h/mL
same,odds ratio of recanalization,[9],4.23
same,NOAEL at 2 weeks,[10],≥ 10 mg/kg
same,Unchanged form of TMS-007 in urine,[11]; any one of the cohorts,not observed
same,time of peak blood concentration,"[11]; immediately after completion of administration, all cohorts",31 min
same,half-life,"[11]; male, human, blood, intravenous, regardless of the dose (0.05-6 mg/kg), read-out: half-lives in blood",10 to 15 min
same,Cmax,[11]; [13],346 ng/mL
same,AUC(0-t),[11]; [13],252 ng·h/mL
same,Cmax,[11]; [14],1860 ± 150 ng/mL
same,AUC(0-t),[11]; [14],1380 ng·h/mL
same,Cmax,[11]; [15],6700 ng/mL
same,AUC(0-t),[11]; [15],5020 ng·h/mL
same,Cmax,[11]; [16],20300 ng/mL
same,AUC(0-t),[11]; [16],16000 ng·h/mL
same,Cmax,[11]; [17],49900 ± 5200 ng/mL
same,AUC(0-t),[11]; [17],38800 ng·h/mL
